Tests used:
TNF-α = TNF-α secretion of PBMC (ELISA), LPS stimulated or unstimulated; format: cell-based, human
Procedure: PBMC (1x10^6/mL) cultured in RPMI 1640 medium supplemented with 10% heat-inactivated fetal calf serum, 2 mM L-glutamine, 100 U/ml penicillin/streptomycin were stimulated with 0.5 ng/ml CD3/CD28 MAbs and exposed to the test compounds. After 24 h, supernatants were collected and stored at -80°C until analysis using the human MACSplex cytokine 12-kit (Miltenyi Biotec GmbH, Bergisch Gladbach, Germany) according to manufacturer’s protocol to quantify cytokine secretion. Supernatants were also used for photometric quantification by the human TNF-alpha or IL-1β ELISA Ready-Set-Go kit from eBIoscience (Frankfurt, Germany) according to the manufacturer’s instructions.
Figure 5 In bacterial LPS stimulated PBMC, AITC triggers MAPK activation and TNF-α inhibition in dependence of the TAS2R38 genotype. PBMC were exposed to AITC or 0.01% DMSO (SC) together with 100 pg/mL LPS. (A) Representative immunoblots are given. Densitometric analysis was done to quantify the immunoblots using Quantity One software (Bio-Rad, Munich, Germany) and normalized against β-actin, which was used as loading control. (B, C) Cytokine secretion at 3 and 24 h was analyzed using ELISA kits. (D) Time kinetic of TNF-α mRNA expression. Results are means + SD and given as fold of the solvent control. Results were calculated relative to the corresponding solvent control (SC, 0.01% DMSO). Significance of difference was determined compared to the respective SC by one-way ANOVA, *p < 0.05, **p < 0.01.

[1] = Human food intervention: AITC metabolite plasma levels after mustard intake (LC-ESI-MS/MS); format: in vivo; settings: single intake of an AITC containing food product
Procedure: AITC metabolite quantification was carried out in blood plasma samples derived from an intervention study at the University Medical Center in Freiburg, Germany. Samples were from 4 healthy young adults (3 females, 1 male, aged between 30-40 years) having a normal BMI, and were non-smokers. Each subject consumed one time 10 g of a commercially available mustard preparation ([…] Munich, Germany) containing 24.74 ± 1.76 μmol/g fresh weight preformed AITC on an empty stomach with optional consumption of white bread. The intervention was preceded by a 48 h wash-out phase consisting of a glucosinolate/ITC-free diet. After 30 min and optionally 60 min, blood was collected by venipuncture in serum tubes and centrifuged at 2000g for 10 min, 4°C to obtain serum. Subsequently, TFA was added and the samples frozen at -80°C. The preparation of serum samples (300 μL serum and 100 μL TFA) was conducted as described by Kühn et al. ([37]). The frozen samples were thawed, vortexed (1 min) and centrifuged (4 °C, 10 min, 20.854 x g). The supernatant was transferred to SPE cartridges. Prior to transferring, SPE cartridges were conditioned with acetonitrile (ACN, 3 mL) and equilibrated with water (3 mL). After sample application, the cartridges were washed with formic acid (FA, 3 mL, 0.1% in water) and the metabolites were eluted with FA (3 mL, 0.1% in ACN:water, 90:10, v/v). […] The samples were re-dissolved in 100 μL FA (0.1% in ACN:water, 90:10, v/v). Sample aliquots of 5 μL were injected into the LC-ESI-MS/MS system. LC-ESI-MS/MS analysis was performed on an API4000 triple quadrupole mass spectrometer (AB Sciex Germany GmbH, Darmstadt, Germany) equipped with an Agilent 1200 LC system (Agilent Technologies Deutschland GmbH & Co. KG, Waldbronn, Germany). For data acquisition and processing the software Analyst 1.6.1 (AB Sciex Germany GmbH, Darmstadt, Germany) was used. […] AITC-CysGly; AITC-Cys; AITC-NAC) was conducted according to Platz et al. ([38]) with minor modifications. The separation was performed on a Kinetex C18 column (Phenomenex, 5 μm, 100 Å, 150 x 2.1 mm). The autosampler operated at 4°C and the set temperature for the oven was 20°C. A constant flow of 300 μL/min was used for the mobile phase which consisted of 0.1% FA in water (A) and 0.1% FA in ACN (B). […] In order to equilibrate the column, A was increased to 90% and held for 5 min. The relevant MS parameters include an entrance potential of -10 V, a desolvation gas temperature of 450°C, ion spray potential of -4.5 kV, gas 1 and gas 2 at 46 psi and a curtain gas pressure at 10 psi.

[2] = design: method as in PMID 26317351; settings: rats, oral dosing; cited from earlier work

C=CCN=C=S [AITC, allyl isothiocyanate]
TNF-α release (TNF-α; AITC exposure without inflammatory stimulus (data not shown)): no change | inhibition at 3 µM (TNF-α; Homo sapiens, 3 h LPS activated PBMC, 3 µM AITC, dependent on TAS2R38 receptor functionality, read-out: peak inhibition of TNF-α secretion): 54% | TNF-α secretion (TNF-α; LPS, prolonged incubation 24 h, PAV/PAV group, all tested concentrations): abolished the effect | AITC plasma levels [1]: around one | time to peak plasma level [2]: ≤ 0.5 h

Reference: PMC8103899, “Allyl Isothiocyanate: A TAS2R38 Receptor-Dependent Immune Modulator at the Interface Between Personalized Medicine and Nutrition” (Frontiers in Immunology, 2021)
